This is an account of results in ChEMBL document CHEMBL5727973, “Azetidinyloxyphenylpyrrolidine compounds” (2020).

Usually IC50 stands for the concentration that inhibits the measured activity by half.

The target of this assay is 3',5'-cyclic-AMP phosphodiesterase 4B (Homo sapiens, UniProt Q07343). The assay is described as follows: Inhibition In Vitro Assay: PDE4A, PDE4B, PDE4C, PDE4D, and PDE5 human recombinant proteins are expressed and purified from Saccharomyes cerevisiae that lack endogenous PDEs. The phosphodiesterase enzymes are diluted on ice with enzyme dilution buffer (25 mM Tris, pH 7.5, 0.1 mM DTT, 5.0 mM MgCl2, 100 mM NaCl, 5 μM ZnSO4, 100 μg/mL BSA) to give approximately 20%-40% hydrolysis of cyclic nucleotide monophosphate (cNMP) in the absence of inhibitor. The stock solution of test compounds are diluted on the Beckman BioMek™ 1000 workstation to span a concentration range of 4.5 log units in 0.5 log increments. The DMSO concentration in the final test system is 2.5% for all PDE enzymes. The final test compound concentration tested ranged from 0.03 nM to 1 μM. The assay is performed in a 96-well microtiter plate format on a Beckman BioMek™ 1000 robotic station. Each row of the plate represents a 10-point dose response curve containing blank (no enzyme), non-inhibited control, and inhibitor dilutions spanning 4.5 log units in concentration in 0.5 log increments. Assay stock solutions are loaded into the Biomek™ reservoirs (water, inhibitor diluent [2.5% or 10% DMSO], 5× PDE assay buffer, substrate, inhibitor solutions, enzyme solutions, snake venom nucleotidase, and charcoal suspension). The reaction is initiated with enzyme, and incubated for 15 minutes at 30° C. […].
Chain of 3',5'-cyclic-AMP phosphodiesterase 4B (Q07343 whole entry): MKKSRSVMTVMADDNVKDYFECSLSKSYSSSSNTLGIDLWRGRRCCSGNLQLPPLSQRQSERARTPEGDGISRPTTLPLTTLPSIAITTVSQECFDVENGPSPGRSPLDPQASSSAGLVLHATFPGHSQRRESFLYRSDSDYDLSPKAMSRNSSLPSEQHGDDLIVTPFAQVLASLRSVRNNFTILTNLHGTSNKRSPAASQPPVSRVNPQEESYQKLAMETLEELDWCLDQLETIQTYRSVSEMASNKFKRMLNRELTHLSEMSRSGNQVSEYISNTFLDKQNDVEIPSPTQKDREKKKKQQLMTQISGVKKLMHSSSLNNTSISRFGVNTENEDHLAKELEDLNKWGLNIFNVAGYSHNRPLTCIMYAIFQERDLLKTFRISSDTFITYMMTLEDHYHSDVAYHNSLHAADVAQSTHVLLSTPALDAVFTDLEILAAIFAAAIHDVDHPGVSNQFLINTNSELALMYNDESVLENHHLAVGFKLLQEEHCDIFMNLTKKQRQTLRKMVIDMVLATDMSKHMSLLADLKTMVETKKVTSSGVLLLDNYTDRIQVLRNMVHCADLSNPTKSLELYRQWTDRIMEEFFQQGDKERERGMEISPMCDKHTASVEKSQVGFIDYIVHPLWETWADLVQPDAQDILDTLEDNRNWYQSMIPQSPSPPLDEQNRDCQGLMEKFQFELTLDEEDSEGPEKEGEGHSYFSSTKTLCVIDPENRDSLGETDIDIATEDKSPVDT

Consider `COc1ccc([C@@H]2CN(C(=O)[C@@H](O)CO)C[C@@]2(C)[C@@H](C)O)cc1OC1CN(c2cnccn2)C1`, for which the IC50 came out at 0.014 µM.
